Test results reported in patent US8299061B2, “Inhibitors of diacylglycerol acyltransferase” (Eli Lilly and Company, priority 2009, dated 2012).
Several values for one entry are separate records, joined by “and”; a condition that tells them apart may be missing. Equal entries are not always repeated. Where two headings read alike, the source gives them in different places.

Tests used:
recombinant human DGAT-1 = target: T1, recombinant human DGAT-1 (Homo sapiens, UniProt O75907); assay: DGAT-1 enzyme assay; type: biochemical; details: recombinant human DGAT-1 expressed in sf9 insect cells; geometric mean±standard error
T1 construct: made in house; host or cells: sf9 insect cells (recombinant baculovirus); crude cell homogenate used
T1 sequence (O75907 1-488): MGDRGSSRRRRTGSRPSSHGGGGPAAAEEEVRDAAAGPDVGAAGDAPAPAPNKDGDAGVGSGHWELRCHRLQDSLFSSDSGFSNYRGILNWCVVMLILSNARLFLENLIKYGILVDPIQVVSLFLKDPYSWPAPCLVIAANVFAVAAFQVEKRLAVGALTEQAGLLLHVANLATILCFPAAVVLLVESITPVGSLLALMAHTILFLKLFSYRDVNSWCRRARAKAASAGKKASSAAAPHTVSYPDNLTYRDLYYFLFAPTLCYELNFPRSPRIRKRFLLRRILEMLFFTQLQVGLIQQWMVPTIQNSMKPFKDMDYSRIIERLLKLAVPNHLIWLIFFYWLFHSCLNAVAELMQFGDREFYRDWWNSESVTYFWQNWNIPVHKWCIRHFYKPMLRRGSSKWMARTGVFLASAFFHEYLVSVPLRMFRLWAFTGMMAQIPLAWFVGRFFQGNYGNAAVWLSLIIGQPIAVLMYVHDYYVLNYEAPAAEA
Method: DGAT-1 enzyme assay Inhibitors of DGAT-1 are identified with an in vitro enzymatic assay which uses recombinant human DGAT-1 expressed in sf9 insect cells as an enzyme source. DGAT-1 enzyme is produced by infecting cells with recombinant baculovirus containing a DGAT-1 expression vector. After 48 hr infection cells are harvested by centrifugation, resuspended in cold 20 mM NaCl, and disrupted with a Dounce homogenizer. Fifteen milliliters of 20 mM NaCl are added to a cell pellet for each liter of infected cell suspension. DNA in the homogenate is sheared by pulling the cell extract through a 25 gauge needle. DGAT-1 activity in the baculovirus infected cell homogenate is compared to homogenate from uninfected cells to assess background enzymatic activity associated with sf9 cells.
Assays are performed in 96 well plates using a modification of the assay described by Coleman (Methods in Enzymology 209. pp 98-102 (1992)). Briefly, compounds are tested in a 1:3 serial dilution scheme from 100 μM to 1.7 nM final concentration. The enzyme reaction mixture contains substrates 250 μM 1,2-sn-diacylglycerol (Avanti Polar Lipids), 5 μM ^14C oleoyl CoA, and 45 μM oleoyl CoA in an aqueous buffer containing 150 mM Hepes buffer pH7.4, 0.7% vol/vol Triton® X-100 and Complete™ protease inhibitors. […] One hundred microliters of scintillation cocktail is then added and, after 8 hr, plates are counted. […]

mouse 3T3-L1 adipocytes = assay: Adipocyte triglyceride synthesis assay; type: cell-based; details: inhibition of triglyceride synthesis, 14C acetate, 4 hours, geometric mean±standard error
Method: Adipocyte Triglyceride Synthesis Assay: This assay measures the ability of compounds to inhibit triglyceride synthesis in intact mouse 3T3-L1 adipocytes. Undifferentiated 3T3-L1 cells are cultured in 96 well plates at a density of 25,000 cells per well using standard tissue culture conditions. After two days in culture, the cells are differentiated to adipocytes by placing them in media supplemented with 0.5 mM 1-methyl-3-isobutylxanthine (IBMX), 10 μg/mL insulin and 1 μM dexamethasone. After five days in culture, cells are grown in media supplemented only with 10 μg/mL insulin. Assays are performed after cells have been in culture 12 days. To begin the assay, culture media is removed from the cells and replaced with 50 μl OptiMEM® media containing 0.375 μCi/well ^14C acetate. Cells are then incubated at 37° C. in 7.5% CO2 for 4 hours. At the end of this incubation, media is removed, cells are washed once with Hank's balanced salts, and 25 μl of 0.7% Triton® X-100 is added to each well and allowed to extract the cells for 5 minutes. At the end of this period, 75 μl of a solution containing 58.8% isopropanol, 14.7% n-heptane, 11.5% water, 12.5% ethanol, and 2.5% 1N sodium hydroxide is added to each well and plates are shaken on an orbital shaker for 2 minutes. 100 μl of heptane is then added and plates are shaken for another 2 minutes. […]

Male Sprague-Dawley rats = assay: Oil bolus absorption model (plasma triglyceride after olive oil bolus); type: in vivo, rat; details: for ED80: dose reducing increase in plasma triglyceride by 80%
Method: Male Sprague-Dawley rats (280-320 g, n=6 per test group) on regular chow are acclimated to the test vivarium for at least 1 week prior to compound evaluation. Prior to compound testing, rats are fasted for 16 hour. Compounds are administered via oral gavage in a vehicle of 10% ethanol/90% corn oil at a volume of 1 ml/kg. Four hours after compound administration, a 0.5 ml blood sample is collected via the tail vein. Immediately following the 4 hour blood collection, a 3.0 ml bolus of olive oil is administered by oral gavage. A final blood sample is collected from the tail vein 6 hours after compound administration. Plasma is prepared from blood samples by centrifugation and analyzed for both triglyceride content, using a Hitachi 912 clinical chemistry analyzer, and test compound levels. The effective dose that reduces the increase in plasma triglyceride by 50% (ED50) and 80% (ED80) is determined DGAT-1 inhibition is indicative of the ability of the test compound to inhibit the increase in plasma triglyceride that occurs between hours 4 and 6 of the study (between 14 and 16 hours in the modified model) in vehicle treated (control) animals. In a modification of the model, compound is administered 14 hours prior to the first blood sample collection and oil bolus administration. The final blood sample is collected at 16 hours after dosing. In this longer duration version of the model, the 10% ethanol/90% corn oil vehicle is administered, without compound, at 10 hours after compound dosing to be consistent with the shorter duration version of the model. Compounds are tested substantially by the oil bolus absorption rat model method described herein.
For the compound N-[1-[[(4R)-5,6-dihydro-4H-imidazo[1,2-a][1]benzazepin-4-yl]carbamoyl]cyclopropyl]-4-ethoxy-benzamide (Examples 1, 3, 57), the three experiments used doses of 1, 3, 10 and 30 mg/kg. For the compound 4-Chloro-N-[1-[[(4R)-5,6-dihydro-4H-imidazo[1,2-a][1]benzazepin-4-yl]carbamoyl]cyclopropyl]benzamide (Examples 2, 21, 58), experiment 1 used doses of 0.3, 1, 3, 10 and 30 mg/kg, and for experiments 2 and 3, the doses used are 0.1, 0.3, 1, 3 and 10 mg/kg.
The data are analyzed using meta-analysis. The overall ED50 (ED80) is estimated as the weighted average of ED50 (ED80) from individual studies, with the weights being the inverse of variance of ED50 (ED80) estimates. The homogeneity Q-test is performed. If the test is significant at 0.10 level, a mixed-effect model is used to include both inter-study and intra-study variability. The weights are adjusted to the inverse of the sum of inter-study variance and the intra-study variance of ED50 (ED80) from individual studies. The inter-study variance is estimated by the Paule-Mandel estimator. (References: Sutton, A. J., Jones, D. R., Abrams, K. R., Sheldon, T. A., and Song, F., Methods for Meta-analysis in Medical Research London, John Wiley, ISBN 0-471-49066-0 (2000). Dersimonian R., and Kacker, R., Random-effects model for meta-analysis of clinical trials: An update, Contemporary Clinical Trials 28 p 105-114 (2007).

[1] = test system: C57 B16 mice fed a high fat diet; assay: Diet-induced obese mouse model; type: in vivo; details: twice daily oral gavage, meta-analysis; for Vehicle controlled percent Fat Mass Change, Mean: QNMR; for Vehicle controlled percent Food Intake Change, Mean: cumulative food intake
Method: Diet-induced obese mouse model: To measure effects on body weight and food intake, compounds are tested in C57 B16 mice fed a high fat diet (Research Diets D12492). Fourteen week old mice raised on D12492 are acclimated to the test vivarium for 2 weeks on a 12 hour light/dark cycle. Seven days prior to compound testing, animals are dosed by oral gavage either once or twice daily with a suitable vehicle in order to accustom the mice to handling. On day 6 of vehicle dosing, body composition is measured by quantitative nuclear magnetic resonance (QNMR). On day seven of vehicle dosing, animals are randomized by body weight and sorted into test groups (n=8). Compound dosing, twice daily, commences after 7 days of vehicle dosing. Animals are given compound 30 minutes prior to the dark phase of the dark/light cycle and, if desired, again 5.5 hours into the dark phase. Compound dosing continues for 15 to 22 days during which time food intake and body weight are measured daily. On day 14 of the experiment, body composition is measured for a second time by QNMR. On day 15, terminal bleeds are taken from two animals per test group at 0, 2, 4, and 6 hours after the final dose for measurement of test compound levels in plasma.
The data are analyzed using a meta-analysis. For the percent Body Weight gain (loss) and percent Fat Mass gain (loss), the measure of treatment effect in the meta-analysis is the group mean difference between treatment and control group. For the percent Cumulative Food Intake Change from Control (% CFICFC), the measure of treatment effect is % CFICFC itself. The overall treatment effect is estimated as the weighted average of treatment effect from individual studies, with the weights being the inverse of variance of individual study's treatment effect estimates. The homogeneity Q-test is performed. If the test is significant at 0.10 level, then a mixed-effect model is used to include both inter-study and intra-study variability. The weights are adjusted to the inverse of the sum of inter-study variance and the intra-study variance of treatment effect estimates from individual studies. The inter-study variance is estimated by the Paule-Mandel estimator. (References: Sutton, A. J., Jones, D. R., Abrams, K. R., Sheldon, T. A., and Song, F., Methods for Meta-analysis in Medical Research London, John Wiley, ISBN 0-471-49066-0 (2000). Dersimonian R., and Kacker, R., Random-effects model for meta-analysis of clinical trials: An update, Contemporary Clinical Trials 28 p 105-114 (2007). Compounds are tested substantially by the diet-induced obese mouse model method described herein.
For N-[1-[[(4R)-5,6-dihydro-4H-imidazo[1,2-a][1]benzazepin-4-yl]carbamoyl]cyclopropyl]-4-ethoxy-benzamide (Examples 1, 3, 57), three experiments were performed at doses of 1, 3, 10 and 30 mg/kg (two of the experiments) and 3 and 30 mg/kg (one of the experiments). Because the 3 and 30 mg/kg doses are common to the experiments, these doses are used to compare the results.
For 4-Chloro-N-[1-[[(4R)-5,6-dihydro-4H-imidazo[1,2-a][1]benzazepin-4-yl]carbamoyl]cyclopropyl]benzamide (Examples 2, 21, 58), two experiments were performed at doses of 3, 10, 30 and 60 mg/kg and at 0.3, 1, 3 and 10 mg/kg. For each of the experiments, the doses are given twice per day. Because the 3 and 10 mg/kg doses are common to the experiments, these doses are used to compare the results.

| SMILES | IC50 (recombinant human DGAT-1) | EC50 (mouse 3T3-L1 adipocytes) | ED50 (Male Sprague-Dawley rats; 16 hour oil bolus study, rat, oral gavage, dose reducing increase in plasma triglyceride by 50%, individual experiments) | ED80 (Male Sprague-Dawley rats; 16 hour oil bolus study, rat, oral gavage, individual experiments) | ED80 Mean (meta-analysis) (Male Sprague-Dawley rats; 16 hour oil bolus study, weighted average of three experiments) | ED50 (Male Sprague-Dawley rats; Rattus norvegicus, 16 h, 16 hour oil bolus study, weighted average of three experiments, read-out: ED50 Mean (meta-analysis)) | Vehicle controlled percent Fat Mass Change, Mean ([1]; 3 mg/kg − control) | Vehicle controlled percent Food Intake Change, Mean ([1]; 3 mg/kg − control) | Vehicle controlled percent Body Weight Change, Mean ([1]; 3 mg/kg − control) | Vehicle controlled percent Fat Mass Change, Mean ([1]; 30 mg/kg − control) | Vehicle controlled percent Food Intake Change, Mean ([1]; 30 mg/kg − control) | Vehicle controlled percent Body Weight Change, Mean ([1]; 30 mg/kg − control) | ED50 (Male Sprague-Dawley rats; 6 hour oil bolus study, rat, oral gavage, dose reducing increase in plasma triglyceride by 50%, individual experiments) | ED80 (Male Sprague-Dawley rats; 6 hour oil bolus study, rat, oral gavage, individual experiments) | ED80 Mean (meta-analysis) (Male Sprague-Dawley rats; 6 hour oil bolus study, weighted average of experiments) | ED50 (Male Sprague-Dawley rats; Rattus norvegicus, 6 h, 6 hour oil bolus study, weighted average of experiments, read-out: ED50 Mean (meta-analysis)) | Vehicle controlled percent Fat Mass Change, Mean ([1]; 10 mg/kg − control) | Vehicle controlled percent Food Intake Change, Mean ([1]; 10 mg/kg − control) | Vehicle controlled percent Body Weight Change, Mean ([1]; 10 mg/kg − control) |
| --- | --- | --- | --- | --- | --- | --- | --- | --- | --- | --- | --- | --- | --- | --- | --- | --- | --- | --- | --- |
| CCOc1ccc(C(=O)NC2(C(=O)N[C@@H]3CCc4ccccc4-n4ccnc43)CC2)cc1 [Example 1, N-[1-[[(4R)-5,6-dihydro-4H-imidazo[1,2-a][1]benzazepin-4-yl]carbamoyl]cyclopropyl]-4-ethoxy-benzamide] | 0.134 ± 0.008 µM | 0.175 µM | 1.71 mg/kg and 12.37 mg/kg and 2.92 mg/kg | 5.52 mg/kg and 19.61 mg/kg and 7.64 mg/kg | 7.34 mg/kg | 5.3 mg/kg | −6.69% | −10.11% | −4.74% | −8.24% | −11.35% | −5.31% | – | – | – | – | – | – | – |
| O=C(NC1(C(=O)N[C@@H]2CCc3ccccc3-n3ccnc32)CC1)c1ccc(Cl)cc1 [Example 2, 4-Chloro-N-[1-[[(4R)-5,6-dihydro-4H-imidazo[1,2-a][1]benzazepin-4-yl]carbamoyl]cyclopropyl]benzamide] | 0.089 ± 0.00098 µM | 0.213 µM | – | – | – | – | −9.53% | −11.31% | −4.65% | – | – | – | 0.26 mg/kg and 0.73 mg/kg and 0.57 mg/kg | 0.45 mg/kg and 2.22 mg/kg | 0.54 mg/kg | 0.32 mg/kg | −8.41% | −8.43% | −4.54% |
